Measurements from PubChem BioAssay (NCI).
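A five-concentration, 48-hour dose response in 96-well plates underlies each endpoint, interpolated linearly between surrounding concentrations. GI50 is the concentration that inhibits growth by half. Definition used: TGI = concentration required for complete inhibition of growth.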

How the values were obtained:
Experiment in all cases: growth of human tumour cells (NCI), 48 h
HCT-15 colon = test system: HCT-15 colon
SN12C renal = test system: SN12C renal
NCI/ADR-RES ovarian = test system: NCI/ADR-RES ovarian
NCI-H23 lung = test system: NCI-H23 lung
NCI-H226 lung = test system: NCI-H226 lung
UACC-62 melanoma = test system: UACC-62 melanoma
HS 578T breast = test system: HS 578T breast
OVCAR-3 ovarian = test system: OVCAR-3 ovarian
HOP-62 NSCLC = test system: HOP-62 NSCLC
CAKI-1 renal = test system: CAKI-1 renal
HL-60(TB) leukemia = test system: HL-60(TB) leukemia
PC-3 prostate = test system: PC-3 prostate
M14 melanoma = test system: M14 melanoma
MCF7 breast = test system: MCF7 breast
RPMI-8226 leukemia = test system: RPMI-8226 leukemia
MOLT-4 leukemia = test system: MOLT-4 leukemia
SR leukemia = test system: SR leukemia
OVCAR-4 ovarian = test system: OVCAR-4 ovarian
CCRF-CEM leukemia = test system: CCRF-CEM leukemia
SK-OV-3 ovarian = test system: SK-OV-3 ovarian
SK-MEL-2 melanoma = test system: SK-MEL-2 melanoma
OVCAR-5 ovarian = test system: OVCAR-5 ovarian
UO-31 renal = test system: UO-31 renal
786-0 renal = test system: 786-0 renal
NCI-H460 lung = test system: NCI-H460 lung
U251 CNS = test system: U251 CNS
SF-295 CNS = test system: SF-295 CNS
UACC-257 melanoma = test system: UACC-257 melanoma
MALME-3M melanoma = test system: MALME-3M melanoma
T-47D breast = test system: T-47D breast
SK-MEL-5 melanoma = test system: SK-MEL-5 melanoma
BT-549 breast = test system: BT-549 breast
MDA-MB-231 breast = test system: MDA-MB-231 breast
SF-268 CNS = test system: SF-268 CNS
KM12 colon = test system: KM12 colon
RXF 393 renal = test system: RXF 393 renal
HT29 colon = test system: HT29 colon
SNB-75 CNS = test system: SNB-75 CNS
COLO 205 colon = test system: COLO 205 colon
EKVX NSCLC = test system: EKVX NSCLC
HCT-116 colon = test system: HCT-116 colon
A498 renal = test system: A498 renal
LOX IMVI melanoma = test system: LOX IMVI melanoma
SK-MEL-28 melanoma = test system: SK-MEL-28 melanoma
MDA-MB-435 = test system: MDA-MB-435
SNB-19 CNS = test system: SNB-19 CNS
OVCAR-8 ovarian = test system: OVCAR-8 ovarian
HOP-92 NSCLC = test system: HOP-92 NSCLC
HCC-2998 colon = test system: HCC-2998 colon
DU-145 prostate = test system: DU-145 prostate
IGROV1 ovarian = test system: IGROV1 ovarian
A549 NSCLC = test system: A549 NSCLC
SW-620 colon = test system: SW-620 colon
SF-539 CNS = test system: SF-539 CNS
K-562 leukemia = test system: K-562 leukemia
NCI-H522 lung = test system: NCI-H522 lung
ACHN renal = test system: ACHN renal

Question: Which results are given for Fc1ccc(-c2nn(-c3ccccc3)cc2-c2nc3ccccc3o2)cc1?
Answer: GI50 (HCT-15 colon): 1.83 µM; TGI (HCT-15 colon): 39 µM; GI50 (SN12C renal): 6.15 µM; TGI (SN12C renal): 33.5 µM; GI50 (NCI/ADR-RES ovarian): 3.57 µM; TGI (NCI/ADR-RES ovarian): > 100 µM; GI50 (NCI-H23 lung): 2.26 µM; TGI (NCI-H23 lung): 11.7 µM; GI50 (NCI-H226 lung): 13.6 µM; TGI (NCI-H226 lung): 32 µM; GI50 (UACC-62 melanoma): 5.5 µM; TGI (UACC-62 melanoma): 19.6 µM; GI50 (HS 578T breast): 6.48 µM; TGI (HS 578T breast): 66.5 µM; GI50 (OVCAR-3 ovarian): 2.87 µM; TGI (OVCAR-3 ovarian): 48.7 µM; GI50 (HOP-62 NSCLC): 4.95 µM; TGI (HOP-62 NSCLC): 33.4 µM; GI50 (CAKI-1 renal): 3.13 µM; TGI (CAKI-1 renal): > 100 µM; GI50 (HL-60(TB) leukemia): 3.29 µM; TGI (HL-60(TB) leukemia): 9.26 µM; GI50 (PC-3 prostate): 0.491 µM; TGI (PC-3 prostate): > 100 µM; GI50 (M14 melanoma): 3.91 µM; TGI (M14 melanoma): 15.1 µM; GI50 (MCF7 breast): 0.539 µM; TGI (MCF7 breast): > 100 µM; GI50 (RPMI-8226 leukemia): 1.05 µM; TGI (RPMI-8226 leukemia): 9.3 µM; GI50 (MOLT-4 leukemia): 3.62 µM; TGI (MOLT-4 leukemia): > 100 µM; GI50 (SR leukemia): 3.71 µM; TGI (SR leukemia): > 100 µM; GI50 (OVCAR-4 ovarian): 9.12 µM; TGI (OVCAR-4 ovarian): > 100 µM; GI50 (CCRF-CEM leukemia): 3.43 µM; TGI (CCRF-CEM leukemia): > 100 µM; GI50 (SK-OV-3 ovarian): 8.46 µM; TGI (SK-OV-3 ovarian): > 100 µM; GI50 (SK-MEL-2 melanoma): 9 µM; TGI (SK-MEL-2 melanoma): 28.3 µM; GI50 (OVCAR-5 ovarian): 20.1 µM; TGI (OVCAR-5 ovarian): 77.2 µM; GI50 (UO-31 renal): 1.67 µM; TGI (UO-31 renal): 35.1 µM; GI50 (786-0 renal): 15 µM; TGI (786-0 renal): > 100 µM; GI50 (NCI-H460 lung): 2.84 µM; TGI (NCI-H460 lung): 9.95 µM; GI50 (U251 CNS): 1.93 µM; TGI (U251 CNS): 16.5 µM; GI50 (SF-295 CNS): 2.32 µM; TGI (SF-295 CNS): 8.3 µM; GI50 (UACC-257 melanoma): 13.3 µM; TGI (UACC-257 melanoma): 48.2 µM; GI50 (MALME-3M melanoma): 1.71 µM; TGI (MALME-3M melanoma): 5.99 µM; GI50 (T-47D breast): 37.3 µM; TGI (T-47D breast): > 100 µM; GI50 (SK-MEL-5 melanoma): 5.72 µM; TGI (SK-MEL-5 melanoma): 19.3 µM; GI50 (BT-549 breast): 2.97 µM; TGI (BT-549 breast): 21.4 µM; GI50 (MDA-MB-231 breast): 8.47 µM; TGI (MDA-MB-231 breast): 67.3 µM; GI50 (SF-268 CNS): 4.53 µM; TGI (SF-268 CNS): > 100 µM; GI50 (KM12 colon): 3.25 µM; TGI (KM12 colon): > 100 µM; GI50 (RXF 393 renal): 31.6 µM; TGI (RXF 393 renal): > 100 µM; GI50 (HT29 colon): 9.46 µM; TGI (HT29 colon): 30.4 µM; GI50 (SNB-75 CNS): 9.89 µM; TGI (SNB-75 CNS): 33.4 µM; GI50 (COLO 205 colon): 15.1 µM; TGI (COLO 205 colon): 30.5 µM; GI50 (EKVX NSCLC): 5.29 µM; TGI (EKVX NSCLC): 90.6 µM; GI50 (HCT-116 colon): 2.5 µM; TGI (HCT-116 colon): 20.7 µM; GI50 (A498 renal): 2.97 µM; TGI (A498 renal): 56.7 µM; GI50 (LOX IMVI melanoma): 2.36 µM; TGI (LOX IMVI melanoma): 12.4 µM; GI50 (SK-MEL-28 melanoma): 13.4 µM; TGI (SK-MEL-28 melanoma): 39.4 µM; GI50 (MDA-MB-435): 1.79 µM; TGI (MDA-MB-435): 3.41 µM; GI50 (SNB-19 CNS): 4.82 µM; TGI (SNB-19 CNS): 53.1 µM; GI50 (OVCAR-8 ovarian): 3.61 µM; TGI (OVCAR-8 ovarian): > 100 µM; GI50 (HOP-92 NSCLC): 0.158 µM; TGI (HOP-92 NSCLC): 4.48 µM; GI50 (HCC-2998 colon): 7.98 µM; TGI (HCC-2998 colon): > 100 µM; GI50 (DU-145 prostate): 5.65 µM; TGI (DU-145 prostate): 19.4 µM; GI50 (IGROV1 ovarian): 3.94 µM; TGI (IGROV1 ovarian): 39.3 µM; GI50 (A549 NSCLC): 3.46 µM; TGI (A549 NSCLC): 16.4 µM; GI50 (SW-620 colon): 3.12 µM; TGI (SW-620 colon): 36.4 µM; GI50 (SF-539 CNS): 8.88 µM; TGI (SF-539 CNS): 28.7 µM; GI50 (K-562 leukemia): 1.25 µM; TGI (K-562 leukemia): > 100 µM; GI50 (NCI-H522 lung): 3.62 µM; TGI (NCI-H522 lung): 16.8 µM; GI50 (ACHN renal): 4.1 µM; TGI (ACHN renal): > 100 µM
